Patent US20040209246A1, “Dual reporter/dye reduction methodology for evaluating antiviral and cytotoxicity of hepatitis C virus inhibitors” (Agouron Pharmaceuticals, Inc., priority 2003, published 2004)
Where “and” joins values, the source holds several entries; their conditions need not be identical. Identical values can stand only once. Like-named read-outs stand apart in the source and are kept apart here.

Key:
[1] = system: B6b dual reporter replicon cell line (Huh-7); assay: XTT dye reduction cytotoxicity, cell line B6b; conditions: read-out: CC50 (XTT), three days incubation
Description: (§1) In the current invention, two end points will be used to measure CC50 values. The first is XTT dye reduction methodology and the second is the use of the second reporter gene integrated in the nucleus of cells carrying the reporter-selectable HCV replicons. In case of both methodologies, a CC50 value will be generated from the same wells from which an EC50 value was obtained. The CC50 value would be generated by calculating % cytotoxicity of the inhibitor/compound treated wells compared to the no inhibitor/compound well resulting in generation of a dose dependent curve to obtain the value that was responsible for the death of 50% of the cells.
(§2) Cell line BB7 M4 hRLuc#10 was grown in DMEM without phenol red (catalog # 1053-028) at 10% FBS with 4 mM L-glutamine, 1×Pen-step, 1×non-essential amino acids, and 200 μg/ml G418 (all from Gibco BRL/Invitrogen). Line B6b was grown in the same media with the addition of 6 μg/ml Blasticidin (ICN Biomedicals). Experiments in these replicon lines were carried out in 96-well black wall, clear-bottom plates (Costar®; Corning Incorporated). Cells were seeded as diagrammed in the figure below at a density of 2×10^4/well in 100 μl DMEM (described above) without G418 or Blasticidin. […]
(§3) Cell line BB7 M4 hRLuc #10 contained the selectable reporter replicon BB7 M4-hRLuc, which served as an anti-viral marker, but cytotoxicity had to be measured by XTT. […]

[2] = system: reporter-selectable HCV replicon BB7M4hRLuc in B6b Huh-7 cells; assay: HCV replicon hRLuc reporter antiviral assay, dual reporter cell line B6b; assay type: cell-based, Hepatitis C virus; conditions: hRLuc endpoint, three days incubation
Protocol: (§4) An HCV replicon reporter assay system can be developed to determine the specific antiviral activity of inhibitors in standard dose response assays. In such assays, the reporter-selectable containing Huh-7 cells are incubated in 96 wells containing serial dilutions of test inhibitors or no inhibitor. At a specified time after incubation, the activities of the viral-encoded reporter genes are measured in the cell lines using the appropriate reporter assay methodologies. Data from the reporter gene measurements can be expressed as the percent of reporter gene activity in inhibitor-treated cells relative to that of inhibitor-free cells. An analysis of the antiviral component of such data allows for the calculation of the fifty-percent effective concentration (EC50).
(§5) In another embodiment of the invention, the dual antiviral activity/cytotoxicity reporter assay system, in conjunction with recording cytotoxicity in the same wells by the dye reduction method, can be used to determine the specific antiviral activity of inhibitors in standard dose response assays using three endpoints. In such assays, target cells containing the reporter-selectable replicon in microtiter are incubated for a desired duration of time at 37° C. and 5% CO2 with plates containing serial dilutions of test inhibitors or no inhibitor. After the incubation period, the activities of the viral and target cell-encoded reporter genes, as well as cytotoxicity by the dye reduction method, are measured using the appropriate dual reporter assay methods subsequent to the measurement of cellular proliferation by dye reduction. Data from the reporter gene and cellular proliferation measurements can be expressed as the percent of reporter gene activity or optical density (OD) reading in inhibitor-treated cells relative to that of inhibitor-free cells. An analysis of the antiviral component of such data allows for the calculation of the fifty-percent effective concentration (EC50) or ninety-percent effective concentration (EC50) of an inhibitor. In addition, an analysis of the cytotoxicity component of the data can be used to calculate the 50% cytotoxicity concentration (CC50) of an inhibitor. The therapeutic index (TI), which is a measurement of the specific antiviral activity of an inhibitor, can then be calculated by dividing the cytotoxicity (CC50) by the antiviral activity (EC50).

[3] = system: B6b dual reporter replicon cell line (Huh-7); conditions: read-out: CC50 (FLuc), three days incubation
Description: as §1, §2, §3

[4] = system: BB7 M4 hRLuc#10 replicon cell line (Huh-7); assay: XTT dye reduction cytotoxicity, cell line #10; conditions: read-out: CC50 (XTT); cell line #10, XTT dye reduction, three days incubation
Description: as §1, §2, §3

[5] = system: reporter-selectable HCV replicon BB7M4hRLuc in BB7 M4 hRLuc#10 Huh-7 cells; assay: HCV replicon hRLuc reporter antiviral assay, cell line #10; assay type: cell-based, Hepatitis C virus; conditions: cell line #10, hRLuc endpoint, three days incubation
Protocol: as §4
as §5, with “An analysis of the antiviral component of such data allows for the calculation of the fifty-percent effective concentration (EC50) or ninety-percent effective concentration (EC50) of an inhibitor. In addition, an analysis of the cytotoxicity component of the data can be used to calculate the 50% cytotoxicity concentration (CC50) of an inhibitor.” left out

Compound	CC50 [1]	EC50 ([2]; read-out: EC50)	EC90 ([2]; read-out: EC90)	CC50 [3]	CC50 [4]	EC90 [5]	EC50 ([5]; read-out: EC50)	EC50 [2]	EC90 [2]	EC50 [5]
OC[C@H]1O[C@@H](n2cnc3cc(Cl)c(Cl)cc32)[C@H](O)[C@@H]1O [DRB, 5,6-dichlorobenzimidazole riboside]	48.7 µM and 40.4 µM	34.1 µM and 53.7 µM	43.5 µM and 55 µM	85.1 µM and 60.7 µM	53.6 µM and 48.7 µM	50.2 µM and 58 µM	21.5 µM and 33.2 µM	–	–	–
interferon alpha [IFN]	–	–	–	–	–	–	–	0.39 IU/ml and 0.43 IU/ml	2.1 IU/ml and 2.6 IU/ml	0.38 IU/ml and 0.67 IU/ml
